Data set [1] can be described thus: Mouse pharmacokinetics after oral gavage, plasma drug concentration by LC-MS/MS (C57BL/6). Type of data set: in vivo, C57bl/6 mice. The note with it: for Cmax / AUC(0-t): mouse, plasma; for AUC(0-t): read-out: AUC0-24. The protocol: Compounds were formulated in 5% DMSO/5% Tween20 in H2O, sonicated, vortexed, and put on stir plate overnight at a dose volume of 10 mL/kg. Balb/C (Jackson laboratories) or C57bl/6 (Taconic Biosciences) mice (8-9 weeks old) were acclimated to the colony for 3 days prior to dosing. Water and food were provided ab libitum. Compounds were administered by oral gavage. Groups of six animals received 3 to 4 bleeds per day with one terminal bleed. The time points were 30 min, 1 h, 2 h, 4 h, 6 h, 8 h, 24 h. Plasma was collected via centrifugation and analyzed for drug concentrations.
Preparation of Study Samples and Standards for Analysis by LC-MS/MS
50 μl of plasma was aliquoted into a 96 well deep-well polypropylene plate (2 mL) to which 5 μL of DMSO was added. For standards, 5 μl of test compound in DMSO at […] the standard concentration was added to 50 μl of blank matrix in a 96 well deep-well polypropylene plate. For example, for a 300 nM standard, the 10× DMSO concentration was 3 μM. Study samples that require dilution are diluted with the appropriate blank matrix. For example, for a 10× dilution, 5 μL of study sample is added to 45 μl of blank matrix. Protein was precipitated from study samples and standards with the addition of 150 μl of acetonitrile. After a clean plate map was placed firmly over the top of the 96-well plate, a bench top shaker was used for 1 min to ensure complete precipitation of protein. The precipitated protein was pelleted by centrifuging for 3,000 rpm for 10 min at 20° C. and then the clear supernatant was transferred to a clean 96-well plate and spun again under the same conditions in order to pellet any solid material that may have been transferred.
Analysis of Study Samples and Standards with LCMS with MRM Detection
An Agilent 1200 HPLC with binary pump and a Leap CTC with fast wash autosampler were used to introduce samples to the mass spectrometer.
The column used was a Phenomenex Luna C8 30×2 mm 5 μm with a security guard. Mass detection was performed by an Applied Biosystems 4000 Qtrap in MRM mode and ionization was achieved by positive electrospray with a source temperature of 500° C. The ion transitions, […] potential and collision energies were dependent on the specific analyte.
Prepared samples were usually analyzed in reverse chronological order with bracketing standard curves. Typically at least 6 standards were used for quantification with a percent accuracy of +/−15% for all standards except at the LLOQ where a percent accuracy of +/−20% was allowed. The concentration time profile was fit using a one compartment model for the applicable mode of dosing using Phoenix WinNonLin 6.4.

Another data set has as its target T1, CXCR3 (Homo sapiens, UniProt P49682).
T1 construct: host or cells: CHO-K1 (cAMP Hunter CHOK1 CXCR3 Gi cell line)
T1 sequence (P49682 1-368): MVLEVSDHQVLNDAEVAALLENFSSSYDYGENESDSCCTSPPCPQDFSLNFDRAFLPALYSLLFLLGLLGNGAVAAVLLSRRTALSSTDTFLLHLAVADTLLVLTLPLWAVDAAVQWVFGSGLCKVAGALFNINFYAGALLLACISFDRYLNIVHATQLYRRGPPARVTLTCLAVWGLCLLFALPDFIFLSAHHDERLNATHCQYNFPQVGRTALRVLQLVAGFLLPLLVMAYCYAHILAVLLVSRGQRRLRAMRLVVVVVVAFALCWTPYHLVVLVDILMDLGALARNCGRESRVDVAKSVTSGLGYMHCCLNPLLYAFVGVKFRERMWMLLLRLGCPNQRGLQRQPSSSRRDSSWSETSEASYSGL
As to the kind of experiment: CXCR3 cAMP agonist assay (cAMP Hunter CHOK1 CXCR3 Gi cell line, forskolin-stimulated, HitHunter cAMP detection). Type of data set: cell-based. The note with it: cAMP Hunter CHOK1 CXCR3 Gi cells, 20 μM forskolin, 30 minutes; read-out: Activity (CXCR3 cAMP agonist assay compound EC50). The essentials: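 CHOK1 cells expressing human CXCR3 with Gi coupling, 50,000/well in suspension in HBSS/10 mM HEPES/0.1% BSA pH 7.4, were co-treated with 20 μM forskolin and compound (12-point, 0-10 μM, 1% DMSO) for 30 min. cAMP was read by enzyme-complementation luminescence; CXCL11 dose response set maximum efficacy.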

Where two headings read alike, the source gives them in different places.

A word on the Cmax: it is the peak of the concentration-time curve. For orientation: EC50 means the concentration at which the effect is half-maximal. Take `Cc1cc(NC(=O)[C@H](CCCCN)NC(=O)[C@@H]2Cc3ccccc3CN2C(=O)CCC(=O)c2ccccc2)ccc1Cl` [Compound 1-14]: in data set [1] (C57BL/6, 10 mg/kg, male mice), the Cmax was found to be 0.006 µM and the AUC(0-t) was determined as 0.011 µM·h. For the same molecule, the EC50 at CXCR3 was under 50 nM.

In the case of `Cc1c(NC(=O)[C@H](CCN)NC(=O)[C@@H]2Cc3ccccc3CN2C(=O)CCC(=O)c2ccccc2)ccc(Cl)c1Cl` [Compound 2-15], in data set [1] (C57BL/6, 10 mg/kg, male mice), the “apparent oral clearance (CL/F)” value was 37 mL/min/kg, the highest level (Cmax) was 0.97 µM and the AUC(0-t) was determined as 7.5 µM·h. The concentration for a half-maximal effect (EC50) on CXCR3 is under 50 nM.

Turning to `COc1cc(Cl)c(Cl)cc1NC(=O)[C@H](CCN)NC(=O)[C@@H]1Cc2ccccc2CN1C(=O)CCC(=O)c1ccccc1` [Compound 2-23], in data set [1] (C57BL/6, 60 mg/kg, male mice), the “apparent oral clearance (CL/F)” value came to 88 mL/min/kg, the highest level (Cmax) was 3.9 µM and the AUC(0-t) was 19 µM·h. The 50% effective concentration (EC50) on CXCR3 is under 50 nM.

Take `NCC[C@H](NC(=O)[C@@H]1Cc2ccccc2CN1C(=O)CCC(=O)c1ccccc1)C(=O)Nc1ccc2c(c1)CCC2` [Compound 2-47]: in data set [1] (C57BL/6, 60 mg/kg, female mice), the “apparent oral clearance (CL/F)” value turned out to be 66 mL/min/kg, the Cmax is 7.6 µM and the AUC(0-t) is 27.5 µM·h. Further, on CXCR3, the EC50 was under 50 nM.

For `Cc1cccc(NC(=O)[C@H](CCN)NC(=O)[C@@H]2Cc3ccccc3CN2C(=O)CCC(=O)c2ccccc2)c1C` [Compound 2-49], in data set [1] (C57BL/6, 60 mg/kg, female mice), the “apparent oral clearance (CL/F)” value stood at 131 mL/min/kg, the highest level (Cmax) was 7.1 µM and the AUC(0-t) was 14.1 µM·h. For the same molecule, the half-maximal effective concentration (EC50) on CXCR3 was under 50 nM.

On to `CCc1cc(NC(=O)[C@H](CCN)NC(=O)[C@@H]2Cc3ccccc3CN2C(=O)CCC(=O)c2ccccc2)ccc1Cl` [Compound 2-55], for which, in data set [1] (C57BL/6, 60 mg/kg, female mice), the “apparent oral clearance (CL/F)” value was determined as 176 mL/min/kg, the Cmax was 3 µM and the AUC(0-t) worked out at 9.9 µM·h. Also, on CXCR3, the EC50 was under 50 nM.

For `N#Cc1cc2c(cc1NC(=O)[C@H](CCN)NC(=O)[C@@H]1Cc3ccccc3CN1C(=O)CCC(=O)c1ccccc1)CCC2` [Compound 2-57], in data set [1] (C57BL/6, 60 mg/kg, female mice), the “apparent oral clearance (CL/F)” value was 393 mL/min/kg, the Cmax came out at 1.5 µM and the AUC(0-t) came to 4.4 µM·h. Moreover, the EC50 on CXCR3 was under 50 nM.

For `Cc1cc(NC(=O)C2(NC(=O)[C@@H]3Cc4ccccc4CN3C(=O)CCC(=O)c3ccccc3)CCNCC2)ccc1Cl` [Compound 4-12], in data set [1] (C57BL/6, 10 mg/kg, male mice), the “apparent oral clearance (CL/F)” value came out at 32 mL/min/kg, the peak level (Cmax) was 3.3 µM and the AUC(0-t) stood at 9 µM·h. In addition, the concentration giving a half-maximal response (EC50) at CXCR3 fell in the range of 50 to 250 nM.

Consider `O=C(CCC(=O)N1Cc2ccccc2C[C@H]1C(=O)NC1(C(=O)Nc2ccc(Cl)c(Cl)c2F)CCNCC1)c1ccccc1` [Compound 4-14], for which, in data set [1] (C57BL/6, 60 mg/kg, female mice), the “apparent oral clearance (CL/F)” value is reported as 16 mL/min/kg, the Cmax is 5.2 µM and the AUC(0-t) was found to be 99 µM·h. Further, the concentration for a half-maximal effect (EC50) at CXCR3 is under 50 nM.

Regarding `O=C(CCC(=O)N1Cc2ccccc2C[C@H]1C(=O)N[C@@H](CCN1CCC(O)CC1)C(=O)Nc1ccc2c(c1)CCC2)c1ccccc1` [Compound 28-1, (S)—N—((S)-1-((2,3-dihydro-1H-inden-5-yl)amino)-4-(4-hydroxypiperidin-1-yl)-1-oxobutan-2-yl)-2-(4-oxo-4-phenylbutanoyl)-1,2,3,4-tetrahydroisoquinoline-3-carboxamide], the half-maximal effective concentration (EC50) at CXCR3 was under 50 nM.

As to `Cc1cccc(NC(=O)[C@H](CCN2CCC(O)CC2)NC(=O)[C@@H]2Cc3ccccc3CN2C(=O)CCC(=O)c2ccccc2)c1F` [Compound 28-2], the EC50 at CXCR3 was under 50 nM.

Regarding `Cc1ccc(NC(=O)[C@H](CCN2CCC(O)CC2)NC(=O)[C@@H]2Cc3ccccc3CN2C(=O)CCC(=O)c2ccccc2)c(F)c1` [Compound 28-3], the EC50 at CXCR3 lay in the range of 250 to 500 nM.

As to `CS(=O)(=O)Oc1ccc2c(c1)CN(C(=O)CCC(=O)c1ccccc1)[C@H](C(=O)N[C@@H](CCN)C(=O)Nc1ccc(Cl)c(Cl)c1F)C2` [Compound 29-1, (S)-3-(((S)-4-amino-1-((3,4-dichloro-2-fluorophenyl)amino)-1-oxobutan-2-yl)carbamoyl)-2-(4-oxo-4-phenylbutanoyl)-1,2,3,4-tetrahydroisoquinolin-7-yl methanesulfonate], the EC50 on CXCR3 is 50 to 250 nM.

As to `N#Cc1ccc2c(c1)CN(C(=O)CCC(=O)c1ccccc1)[C@H](C(=O)N[C@@H](CCN)C(=O)Nc1ccc(Cl)c(Cl)c1F)C2` [Compound 30-1, (S)—N—((S)-4-amino-1-((3,4-dichloro-2-fluorophenyl)amino)-1-oxobutan-2-yl)-7-cyano-2-(4-oxo-4-phenylbutanoyl)-1,2,3,4-tetrahydroisoquinoline-3-carboxamide], the EC50 on CXCR3 was in the range of 50 to 250 nM.

Regarding `Cc1cc(NC(=O)[C@H](CCNC(=O)CN)NC(=O)[C@@H]2Cc3ccccc3CN2C(=O)CCC(=O)N2CCCCC2)ccc1Cl` [Compound 31-1, (S)—N—((S)-4-(2-aminoacetamido)-1-((4-chloro-3-methylphenyl)amino)-1-oxobutan-2-yl)-2-(4-oxo-4-(piperidin-1-yl)butanoyl)-1,2,3,4-tetrahydroisoquinoline-3-carboxamide], the EC50 on CXCR3 was under 50 nM.

Regarding `CS(=O)(=O)NCC[C@H](NC(=O)[C@@H]1Cc2ccccc2CN1C(=O)CCC(=O)N1CCCCC1)C(=O)Nc1ccc(Cl)c(Cl)c1F` [Compound 32-1, (S)—N—((S)-1-((3,4-dichloro-2-fluorophenyl)amino)-4-(methylsulfonamido)-1-oxobutan-2-yl)-2-(4-oxo-4-(piperidin-1-yl)butanoyl)-1,2,3,4-tetrahydroisoquinoline-3-carboxamide], the concentration giving a half-maximal response (EC50) on CXCR3 fell in the range of 50 to 250 nM.

Regarding `Cc1cc(NC(=O)[C@H](CCNS(C)(=O)=O)NC(=O)[C@@H]2Cc3ccccc3CN2C(=O)CCC(=O)N2CCCCC2)ccc1Cl` [Compound 32-2], at CXCR3, the EC50 was under 50 nM.

As to `CC1(C)CCCCN1C(=O)CCC(=O)N1Cc2ccccc2C[C@H]1C(=O)NC(CC12CC(N)(C1)C2)C(=O)Nc1ccc(Cl)c(Cl)c1F` (stereo partly drawn) [Compound 33-1, (3S)—N-(3-(3-aminobicyclo[1.1.1]pentan-1-yl)-1-((3,4-dichloro-2-fluorophenyl)amino)-1-oxopropan-2-yl)-2-(4-(2,2-dimethylpiperidin-1-yl)-4-oxobutanoyl)-1,2,3,4-tetrahydroisoquinoline-3-carboxamide], at CXCR3, the EC50 is under 50 nM.

On to `CC1(C)CCCCN1C(=O)CCC(=O)N1Cc2ccc(F)cc2C[C@H]1C(=O)N[C@@H](CCN)C(=O)Nc1ccc(Cl)c(Cl)c1F` [Compound 34-1, (S)—N—((S)-4-amino-1-((3,4-dichloro-2-fluorophenyl)amino)-1-oxobutan-2-yl)-2-(4-(2,2-dimethylpiperidin-1-yl)-4-oxobutanoyl)-6-fluoro-1,2,3,4-tetrahydroisoquinoline-3-carboxamide], for which the EC50 on CXCR3 was under 50 nM.

For the molecule `N#Cc1c(NC(=O)[C@H](CCN)NC(=O)[C@@H]2Cc3ccccc3CN2C(=O)CCC(=O)c2ccccc2)ccc2c1CCC2` [Compound 35-1, (S)—N—((S)-4-amino-1-((4-cyano-2,3-dihydro-1H-inden-5-yl)amino)-1-oxobutan-2-yl)-2-(4-oxo-4-phenylbutanoyl)-1,2,3,4-tetrahydroisoquinoline-3-carboxamide], the EC50 at CXCR3 is under 50 nM.

`Cc1cc(C#N)c(NC(=O)[C@H](CCN)NC(=O)[C@@H]2Cc3ccccc3CN2C(=O)CCC(=O)c2ccccc2)cc1Cl` [Compound 35-2]: the concentration for a half-maximal effect (EC50) at CXCR3 is under 50 nM.

For the origin of these results see patent US11040954B1, “CXCR3 receptor agonists” (RECEPTOS LLC, priority 2016, dated 2021).
